Measured values reported in US20020052323A1, “Quinoline-(C=O)-(multiple amino acids)-leaving group compounds for pharmaceutical compositions and reagents” (priority 2000, published 2002).
Values joined by “and” are separate entries in the source; they are usually repeats but may differ in a detail not shown here. Equal values may be shown once. Read-outs that look alike come from different tables or passages of the source. One block for each compound: values may come before it.

Legend:
caspase 9 = molecular target: T1, caspase 9 (Homo sapiens, UniProt P55211); assay: Caspase inhibition assay, Ac-LEHD-AFC substrate; assay type: biochemical
T1 sequence (P55211 1-315 limits assumed): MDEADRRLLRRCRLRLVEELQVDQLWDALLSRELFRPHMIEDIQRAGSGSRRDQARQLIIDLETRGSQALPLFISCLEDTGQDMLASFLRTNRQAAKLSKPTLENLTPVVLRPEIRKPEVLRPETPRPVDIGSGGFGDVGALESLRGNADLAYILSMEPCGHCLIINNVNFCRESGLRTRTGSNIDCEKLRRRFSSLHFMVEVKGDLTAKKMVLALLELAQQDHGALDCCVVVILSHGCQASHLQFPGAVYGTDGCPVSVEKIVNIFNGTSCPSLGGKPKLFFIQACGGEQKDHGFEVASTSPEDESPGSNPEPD
T1 sequence (P55211 331-416 limits assumed): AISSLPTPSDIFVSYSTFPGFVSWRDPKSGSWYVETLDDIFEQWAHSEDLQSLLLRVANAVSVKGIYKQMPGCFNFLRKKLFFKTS
Method: (§1) The determination of the IC50/μm was performed according to Gary Johnson, 9401 James Avenue, Suite No. 155, Bloomington, Minn. 55431.
(§2) Caspase Inhibition Assay:—Caspases are diluted in caspase buffer, 0.1 M HEPES, 10% sucrose 0.1% CHAPS and 10 mM DTT, pH 7.5. Caspases 1, 3, and 8 are used at a concentration of 144 U/well and caspase 9 is used at 4.8 U/well in a 96 well fluorometric plate.
(§3) Inhibitors are initially dissolved in DMSO at 10 mg/ml and further dilutions can be prepared in caspase buffer. The inhibitors are generally tested at concentrations ranging from 50 uM to 0.005 uM. These are usually prepared as 2 fold or 2.5 fold decreasing dilutions. The enzyme approximately 144 U in 120 ul caspase buffer is added to 380 ul caspase buffer containing the appropriate concentration on the inhibitor and incubated on ice for 15 min. The reactants 200 ul are then added to a black fluorimetric plate and incubated in the fluorometer at 37° C. for 30 min.
(§4) During the incubation period appropriate coumarin substrates are prepared by dilution in DMSO and caspase buffer to provide a 0.417 mM working stock. AcYVAD-AFC is used for caspase 1, AcDEVD-AFC for caspase 3. AcIETD-AFC for caspase 8 and Ac-LEHD-AFC for capsase 9. Twenty five microliters of the stock solution are added to 200 ul of the caspase and inhibitor test solutions to give a final substrate concentration of 0.046 mM.
(§5) The fluorometer is set to 400 nm excitation and 505 nm emission. The enzyme-inhibitor-substrate is allowed to incubate at for an additional twenty min. and the response is read as fluorescence units vs inhibitor concentration. The responses are plotted as percent of the maximum response (response in the absence of inhibitor) for each concentration of the inhibitor. The inhibitory activity for each inhibitor is described as the concentration of inhibitor that produces a 50% inhibition of the maximum response (IC50).

caspase 3 = molecular target: T2, caspase 3 (Homo sapiens, UniProt P42574); assay: Caspase inhibition assay, AcDEVD-AFC substrate; assay type: biochemical
T2 sequence (P42574 29-175 limits assumed): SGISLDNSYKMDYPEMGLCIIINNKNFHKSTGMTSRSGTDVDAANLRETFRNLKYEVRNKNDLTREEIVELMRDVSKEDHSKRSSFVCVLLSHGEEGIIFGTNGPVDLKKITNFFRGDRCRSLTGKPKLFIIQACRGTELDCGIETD
T2 sequence (P42574 176-277 limits assumed): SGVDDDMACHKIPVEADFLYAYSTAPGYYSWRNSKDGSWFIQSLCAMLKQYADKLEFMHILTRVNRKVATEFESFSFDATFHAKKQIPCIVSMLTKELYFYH
Method: as §1, §2, §3, §4, §5

caspase 1 = molecular target: T3, caspase 1 (Homo sapiens, UniProt P29466); assay: Caspase inhibition assay, AcYVAD-AFC substrate; assay type: biochemical
T3 sequence (P29466 120-297 limits assumed): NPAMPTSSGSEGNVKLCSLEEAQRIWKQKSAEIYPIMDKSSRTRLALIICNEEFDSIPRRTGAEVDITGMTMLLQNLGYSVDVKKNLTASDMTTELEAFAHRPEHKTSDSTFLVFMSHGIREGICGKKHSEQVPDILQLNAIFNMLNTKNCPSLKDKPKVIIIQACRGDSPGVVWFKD
T3 sequence (P29466 317-404 limits assumed): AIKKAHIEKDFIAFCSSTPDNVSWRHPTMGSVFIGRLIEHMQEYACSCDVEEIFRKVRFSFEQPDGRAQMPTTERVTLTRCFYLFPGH
Method: as §1, §2, §3, §4, §5

caspase 8 = caspase 8 (Homo sapiens, UniProt Q14790); assay: Caspase inhibition assay, AcIETD-AFC substrate; assay type: biochemical
caspase 8, sequence (Q14790 217-374 limits assumed, species assumed): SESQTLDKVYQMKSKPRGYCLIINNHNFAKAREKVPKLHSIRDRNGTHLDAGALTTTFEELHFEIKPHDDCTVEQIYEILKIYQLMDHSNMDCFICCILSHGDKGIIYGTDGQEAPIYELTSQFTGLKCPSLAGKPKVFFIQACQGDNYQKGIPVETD
caspase 8, sequence (Q14790 385-479 limits assumed, species assumed): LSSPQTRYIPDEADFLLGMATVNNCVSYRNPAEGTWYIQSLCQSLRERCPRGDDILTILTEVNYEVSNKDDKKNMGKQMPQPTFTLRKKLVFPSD
Method: as §1, §2, §3
During the incubation period appropriate coumarin substrates are prepared by dilution in DMSO and caspase buffer to provide a 0.417 mM working stock. AcYVAD-AFC is used for caspase 1, AcDEVD-AFC for caspase 3. […]
The fluorometer is set to 400 nm excitation and 505 nm emission. The enzyme-inhibitor-substrate is allowed to incubate at for an additional twenty min. and the response is read as fluorescence units vs inhibitor concentration. […]

[1] = esterase treated inhibitor, read-out: IC50 caspase 1
[2] = from figure, antilog of log concentration, read-out: IC50 caspase 3
[3] = from figure, antilog of log concentration, read-out: IC50 caspase 1

IC50 (caspase 9; esterase treated inhibitor): ~70 nM | IC50 (caspase 9; non-esterase treated inhibitor): ~65 nM | IC50 (caspase 3; esterase treated inhibitor, read-out: IC50 caspase 3): ~31 nM | IC50 (caspase 3; non-esterase treated inhibitor, read-out: IC50 caspase 3): 45 nM | IC50 (caspase 1; [1]): ~39.8 nM
Compound: COC(=O)CC(NC(=O)C(CC(C)C)NC(=O)c1ccc2ccccc2n1)C(=O)CF [quinoline-(2-carbonyl)-L-D(OMe)—CH2-FMK]

IC50 (caspase 9; esterase treated inhibitor): 25 nM | IC50 (caspase 9; non-esterase treated inhibitor): ~29 nM | IC50 (caspase 1; [1]): ~68 nM
Compound: COC(=O)CC(NC(=O)C(NC(=O)c1ccc2ccccc2n1)C(C)C)C(=O)CF [quinoline-(2-carbonyl)-V-D(OMe)—CH2-FMK, Quinoline-(2-Carbonyl)-V-D-(OMe)-α-CH2F (the Fluoromethyl Ketone)]

IC50 (caspase 3; Table 5, read-out: CASP-3 IC50): 250 nM
Compound: COC(=O)C[C@H](NC(=O)[C@@H](NC(=O)c1ccc2ccccc2n1)C(C)C)C(=O)COC1=C(c2ccccc2)C(=O)OC1 [Q-VD(OMe)-Tetronic Acid, Quinoline-(2-Carbonyl)-Val-Asp(OMe)—CH2-2-Phenyltetronic Acid]

IC50 (caspase 3; [2]): ~50 nM | IC50 (caspase 1; [3]): ~548 nM
Compound: CC(C)C[C@H](NC(=O)c1ccc2ccccc2n1)C(=O)N[C@@H](CC(=O)O)C(=O)COc1ccccc1 [quinoline-(2-carbonyl)-L-D-CH2—OPh]

IC50 (caspase 3; Table 5, read-out: CASP-3 IC50): 500 nM | IC50 (caspase 1; Table 5, read-out: CASP-1 IC50): 1430 nM | IC50 (caspase 1; [3]): ~1430 nM
Compound: COC(=O)CC(NC(=O)C(NC(=O)c1ccc2ccccc2n1)C(C)C)C(=O)COc1ccccc1C(=O)O (stereo not drawn) [Q-VD(OMe)-SA, Quinoline-(2-Carbonyl)-Val-Asp(OMe)—CH—O-Salicylic Acid]

More lines, now with the values behind:

Compound: Quinoline-(2-Carbonyl)-Val-Asp(OMe)-α-(3-oxy-Dopamine) [Q-VD(OMe)-DOPA.TFA]
IC50 (caspase 3; Table 5, read-out: CASP-3 IC50): 2000 nM

Compound: COC(=O)C[C@H](NC(=O)[C@H](C)NC(=O)[C@@H](NC(=O)c1ccc2ccccc2n1)C(C)C)C(=O)CF [QVAD(OMe)FMK, Quinoline-(C═O)Val-Ala-Asp(OMe)-Fluoromethyl Ketone]
concentration vs. >90% cell survival: 100 µM

Compound: COC(=O)CC(NC(=O)C(NC(=O)c1ccc2ccccc2n1)C(C)C)C(=O)COc1cc(N)ccc1C(=O)O (stereo not drawn) [Q-VD(OMe)-ASA, Quinoline-(2-Carbonyl)-Val-Asp(OMe)-α-(2-oxy-Amino Salicylic Acid)]
IC50 (caspase 9; from figure, antilog of log concentration): ~5440 nM | IC50 (caspase 8; Table 5, read-out: CASP-8 IC50): 5880 nM | IC50 (caspase 8; from figure, read-out: IC50 caspase 8): ~5820 nM | IC50 (caspase 3; Table 5, read-out: CASP-3 IC50): 1240 nM | IC50 (caspase 3; [2]): ~1230 nM and ~980 nM | IC50 (caspase 1; Table 5, read-out: CASP-1 IC50): 1500 nM | IC50 (caspase 1; [3]): ~1460 nM

Compound: COC(=O)CC(NC(=O)C(NC(=O)c1ccc2ccccc2n1)C(C)C)C(=O)COc1ccc(CCNC(=O)OC(C)(C)C)cc1O (stereo not drawn) [Q-VD(OMe)-DOPA-BOC]
IC50 (caspase 3; Table 5, read-out: CASP-3 IC50): < 25000 nM
